Laboratory results from patent US11083701B2, “Dermatomycosis treatment agent” (priority 2015, dated 2021).
Values after ≈ are worked out from the molar mass of the structure shown. Values belong to the molecule of their own block, whether it stands above or below them.

Legend:
[1] = tested on: Aspergillus oryzae; details: Non-patent Literature 3; cited from earlier work
[2] = tested on: Candida krusei; details: Non-patent Literature 3; cited from earlier work
[3] = tested on: small red papules; experiment: Human case, Example 13: external treatment of small red papules; format: in vivo; details: 3% (also printed 5%) test solution, sprayed once daily, left thigh
Description: (§1) The curative action of trialkali metal salts of citric acid on dermatomycosis was determined based on whether there was a therapeutic effect on human tinea. The cases of tinea used in the test include a variety of cases, such as vesicular tinea on the skin, interdigital tinea, hyperkeratotic tinea, tinea corporis, and tinea unguium. […] In these cases, no skin irritation due to the medicinal agents was confirmed. In many cases described in the Examples, Trichophyton fungus was isolated and identified as a pathogenic fungus; additionally, Example 10 describes a case in which Candida was isolated and identified, and Example 11 describes a case in which Aspergillus was isolated and identified.
A 3% test solution of trisodium citrate was prepared in the same manner as in Example 4. This 5% test solution was sprayed once daily on small red papules that developed on the left thigh.

[4] = tested on: T. mentagrophytes, IFM59813; experiment: Drug-sensitivity test, microdilution method, CLSI guidelines; format: cell-based, Trichophyton mentagrophytes
Description: (§2) The antimicrobial activity of therapeutic agents for treating dermatomycosis was evaluated and confirmed by performing a drug-sensitivity test with major pathogenic fungi in accordance with the CLSI (Clinical Laboratory Standards Institute, U.S.) guidelines. The pathogenic fungi selected were genus Trichophyton (T. rubrum, T. mentagrophytes), genus Microsporum (M. gypseum), genus Epidermophyton (E. floccosum), genus Candida (C. albicans), genus Aspergillus (A. fumigatus), and genus Cryptococcus (C. neoformans). The Examples show the test results. The antimicrobial activity of the compounds of the present invention (MIC, mg/ml) against T. mentagrophytes, which is a typical dermatophytic fungus, is as follows: tripotassium citrate 3.1; and trisodium citrate 6.3. A drug-sensitivity test with a fungus belonging to genus Malassezia (M. furfur) was also performed in accordance with the method of Sugita et al., which employs an agar dilution method (T. Sugita et al., J. Clinical Microbiology, 43, 2824-2829 (2005)). The antimicrobial activity against M. furfur (MIC, mg/ml) was as follows: tripotassium citrate 10.0.
In these drug-sensitivity tests, the medium contained Mg ions and Ca ions necessary for fungal conidia (spores) to germinate and grow. Because carboxyl groups of organic acids bind to these ions, organic acids have competitive inhibitory activity on fungal growth.
In the antimicrobial activity measurement method in accordance with the CLSI guidelines described above, an excessively large amount of magnesium ions and calcium ions is added to the RPMI-1640 medium for use. Thus, the trialkali metal salt of citric acid added to the test system binds completely to the excessively large amount of metal ions, resulting in an apparently large MIC value. For this reason, the ICP analytical method was performed to measure the content of magnesium ions and calcium ions in a test solution used as a blank test in this test system (a solution obtained by adding a solution containing spores of T. mentagrophytes to a RPMI-1640 medium solution, and performing a culture treatment) and to measure the content of magnesium ions and calcium ions in the original RPMI-1640 medium solution, thereby calculating the amount of alkali metal ions absorbed by the spores of T. mentagrophytes. The amount of the citric salt that can bind to all of the alkali metal ions absorbed by the spores is the substantial MIC value.
The antifungal activity of tripotassium citrate and trisodium citrate against a variety of pathogenic fungi was evaluated by performing a drug-sensitivity test. The test was performed using a microdilution method in accordance with the CLSI (Clinical Laboratory Standards Institute, U.S.) guidelines. […]

[5] = tested on: Candida albicans; details: Non-patent Literature 5; cited from earlier work
[6] = tested on: T. rubrum, IFM59814; experiment: Drug-sensitivity test, microdilution method, CLSI guidelines; format: cell-based, Trichophyton rubrum
Description: as §2, with “10.0. […]” for “10.0.”
(§3) The antifungal activity of tripotassium citrate and trisodium citrate against a variety of pathogenic fungi was evaluated by performing a drug-sensitivity test. […]

[7] = tested on: tinea corporis; experiment: Human case, Example 5: external treatment of tinea corporis; format: in vivo; details: 3% test solution, sprayed twice daily, after about 2 months
Description: as §1
A 3% test solution of tripotassium citrate prepared in the same manner as in Example 4 was sprayed twice daily onto tinea corporis that extensively developed over the left part of the buttocks. […] Although light brown pigmentation developed on the healed skin, it faded away over time and became less prominent.

[8] = tested on: hyperkeratotic tinea (Trichophyton mentagrophytes isolated); experiment: Human case, Example 3: external treatment of hyperkeratotic tinea; format: in vivo; details: 0.5% test solution in 20% ethanol, sprayed three times daily, after about 3 months
Description: as §1
20% ethanol was added to 5.3 g of tripotassium citrate monohydrate to give 1000 g, thereby preparing a 0.5% test solution. The 0.5% test solution was applied to hyperkeratotic tinea that extensively developed on the arch on the sole of a foot by spraying the solution three times daily. […] From the area affected by this tinea, Trichophyton mentagrophytes, which is one type of Trichophyton fungi, was isolated and confirmed.

[9] = tested on: tinea in four nails of the left foot; experiment: Human case, Example 8: immersion treatment of toenail tinea; format: in vivo; details: entire foot immersed 1 hour daily in 3% test solution, after a half year
Description: as §1
In the case in which tinea developed in all four nails except the fourth nail of the left foot, the entire foot was immersed for 1 hour daily in a 3% test solution prepared in the same manner as in Example 4. Over the course of the treatment, new nails grew from the base of the nails.

[10] = tested on: tinea unguium; experiment: Human case, Example 12: external treatment of tinea unguium; format: in vivo; details: 10% aqueous solution, sprayed once daily, after a half year
Description: as §1
A 10% aqueous solution of tripotassium citrate was prepared. This 10% test solution was sprayed once daily on the right thumbnail, the entirety of which had developed tinea unguium.

[11] = tested on: C. neoformans, IFM5807; experiment: Drug-sensitivity test, microdilution method, CLSI guidelines; format: cell-based, Cryptococcus neoformans
Description: as §2, with “10.0. […]” for “10.0.”
as §3

[12] = tested on: small red papules (Aspergillus tubingensis as the pathogen); experiment: Human case, Example 11: external treatment of small red papules; format: in vivo; details: 5% solution, sprayed once daily, left chest
Description: as §1
A 5% solution of tripotassium citrate prepared in the same manner as in Example 9 was sprayed once daily on small red papules that developed on the left chest part. […] From the small red papules, a body fluid was collected, and the pathogen was cultured, followed by gene analysis, thereby confirming Aspergillus tubingensis as the pathogen.

[13] = tested on: tinea of nail and surrounding skin (Trichophyton rubrum isolated); experiment: Human case, Example 9: immersion treatment of fingernail tinea; format: in vivo; details: 5% test solution, finger immersed 5 hours once every 2 days, after 3 months
Description: as §1
20 mL of glycerin (84-87% aqueous solution) was added to 106 g of tripotassium citrate monohydrate, and 15% ethanol was further added thereto to give 2 L, thereby preparing a 5% test solution. About 2 mL of this test solution was placed into a commercially available fingerstall (size M). The middle finger of the right hand, which developed tinea on the right edge of the nail and the surrounding skin from the tip to the base of the nail, was immersed in the solution for 5 hours once every 2 days. […] From the nail specimen of this case, a Trichophyton fungus was isolated, and confirmed to be Trichophyton rubrum by gene analysis.

[14] = tested on: M. gypseum, IFM58916; experiment: Drug-sensitivity test, microdilution method, CLSI guidelines; format: cell-based, Microsporum gypseum
Description: as §2, with “10.0. […]” for “10.0.”
as §3

[15] = tested on: C. albicans, IFM5740; experiment: as above; format: cell-based, Candida albicans
Description: as §2, with “10.0. […]” for “10.0.”
as §3

[16] = tested on: interdigital tinea; experiment: Human case, Example 7: external treatment of interdigital tinea; format: in vivo; details: 3% test solution, sprayed once daily, after about 2 months
Description: as §1
A 3% test solution prepared in the same manner as in Example 4 was sprayed once daily onto interdigital tinea that extensively developed between the toes of the feet.

[17] = tested on: thin hyperkeratotic tinea (Trichophyton rubrum isolated); experiment: Human case, Example 6: external treatment of thin hyperkeratotic tinea; format: in vivo; details: 3% test solution, sprayed once daily, after about 1 month
Description: as §1
A 3% test solution prepared in the same manner as in Example 4 was sprayed once daily onto thin hyperkeratotic tinea that extensively developed over around the tip of the nails on the sole of both feet. […] From this affected area of the skin, Trichophyton rubrum was isolated and confirmed.

[18] = tested on: vesicular tinea; experiment: Human case, Example 4: external treatment of vesicular tinea; format: in vivo; details: 3% test solution, sprayed twice daily; symptom practically disappeared after about 1 month, treatment continued about 1 month more
Description: as §1
20 mL of glycerin (84-87% aqueous solution) was added to 63.6 g of tripotassium citrate monohydrate, and 15% ethanol was further added thereto to give 2 L, thereby preparing a 3% test solution. This 3% test solution was applied twice daily, by spraying the solution, to vesicular tinea that extensively developed on the arch of the left foot. After about 1 month, the skin symptom practically disappeared.

[19] = tested on: tinea unguium (Clavispora lusitaniae isolated); experiment: Human case, Example 10: external treatment of tinea unguium; format: in vivo; details: 5% solution, sprayed once daily, after one and a half months
Description: as §1
A 5% solution of tripotassium citrate prepared in the same manner as in Example 9 was sufficiently sprayed once daily on tinea unguium on the tip of the nail of the fourth finger of the right hand. […] From the nail specimen of this affected area, a Candida fungus was isolated and confirmed to be Clavispora lusitaniae (the teleomorph of Candida lusitaniae) by gene analysis.

[20] = tested on: human tinea; experiment: Curative action on human tinea, overall (Examples 3 to 13); format: in vivo; details: 5% solution applied; relapse of symptoms and pigmentation before the end result
Description: as §1
Applying a 5% tripotassium citrate solution on the small red papules on the body made the papules smooth, and relapse of symptoms was observed after every day, with development of pigmentation, and followed by complete cure; this phenomenon was observed quite frequently. The relapse of symptoms was caused by germination of spores, and tripotassium citrate appears to have induced the germination of spores. The biggest factor for the low likelihood of curing dermatomycosis is the presence of spores; even after a treatment with a medicinal agent, if spores remain, the spores germinate, enabling dermatomycosis to return. […]

[21] = tested on: E. floccosum, IFM53345; experiment: Drug-sensitivity test, microdilution method, CLSI guidelines; format: cell-based, Epidermophyton floccosum
Description: as §2, with “10.0. […]” for “10.0.”
as §3

[22] = tested on: A. fumigatus, IFM4942; experiment: as above; format: cell-based, Aspergillus fumigatus
Description: as §2, with “10.0. […]” for “10.0.”
as §3

[23] = tested on: M. furfur; experiment: Malassezia drug-sensitivity test, method of Sugita et al. (agar dilution); format: cell-based; details: mLNA medium, 32° C., 7 days
Description: as §2
The antimicrobial activity of tripotassium citrate against fungi belonging to genus Malassezia was evaluated by performing a drug-sensitivity test with human-related Malassezia species, in accordance with the method disclosed in Sugita et al. (2005). […]

SMILES: O=C(O)CC(O)(CC(=O)O)C(=O)O [citric acid, reference compound]
antimicrobial activity [1]: did not exhibit antimicrobial activity
antimicrobial activity [2]: did not exhibit antimicrobial activity

SMILES: O=C([O-])CC(O)(CC(=O)[O-])C(=O)[O-].[Na+].[Na+].[Na+] [trisodium citrate]
effect on small red papules [3]: immediately shrank, and after 2 weeks, cicatrization and pigmentation occurred
MIC [4]: 6300 µg/mL
antimicrobial activity [1]: did not exhibit antimicrobial activity
antimicrobial activity [2]: did not exhibit antimicrobial activity
antimicrobial activity [5]: exhibited antimicrobial activity

MIC [4]: 2000 µg/mL (≈ 2160 µM)
SMILES: C[C@@H]1[C@H](O)[C@@H](C)/C=C/C=C/C=C/C=C/C=C/C=C/C=C/[C@H](O[C@@H]2O[C@H](C)[C@@H](O)[C@H](N)[C@@H]2O)C[C@@H]2O[C@](O)(C[C@@H](O)C[C@@H](O)[C@H](O)CC[C@@H](O)C[C@@H](O)CC(=O)O[C@H]1C)C[C@H](O)[C@H]2C(=O)O [amphotericin B, reference compound]

SMILES: O=C([O-])CC(O)(CC(=O)[O-])C(=O)[O-].[K+].[K+].[K+] [tripotassium citrate]
MIC [6]: 12500 µg/mL
curative effect on tinea corporis [7]: tinea corporis disappeared, and healthy skin grew back
curative effect on hyperkeratotic tinea [8]: hyperkeratotic tinea disappeared, and clean skin grew back
curative effect on nail tinea (foot) [9]: tinea in all of the nails was fully cured
curative effect on tinea unguium [10]: a healthy nail returned
MIC [11]: 390 µg/mL
MIC [4]: 3100 µg/mL
corrected MIC value ([4]; corrected for the metal ions absorbed by spores (ICP analysis)): 54 µg/mL
effect on small red papules (Aspergillus) [12]: immediately shrank, and after one week, pigmentation and cicatrization occurred
curative effect on tinea of fingernail and surrounding skin [13]: a healthy nail and skin grew back
MIC [14]: 12500 µg/mL
MIC [15]: 25000 µg/mL
curative effect on interdigital tinea [16]: the skin symptom disappeared, and healthy skin grew back
curative effect on thin hyperkeratotic tinea [17]: pink-color, healthy skin grew back
curative effect on vesicular tinea [18]: this tinea was cured
curative effect on tinea unguium (Candida) [19]: tinea unguium was cured
effect on small red papules on the body [20]: complete cure
MIC [21]: 1600 µg/mL
MIC [22]: 6300 µg/mL
MIC [23]: 10000 µg/mL
